Source: ChEMBL document CHEMBL1201862, “PubChem BioAssay data set” (2004)
Activity calls are given as the source filed them.

Columns and labels:
[1] = biological target: 1-phosphatidylinositol 4,5-bisphosphate phosphodiesterase beta-3 (Homo sapiens, UniProt Q01970); test: Fluorescence-based biochemical high throughput dose response assay to identify inhibitors of phospholipase C isozymes (PLC-B3).
[2] = biological target: 1-phosphatidylinositol 4,5-bisphosphate phosphodiesterase gamma-1 (Homo sapiens, UniProt P19174); test: Counterscreen for inhibitors of phospholipase C isozymes (PLC-B3): Fluorescence-based biochemical high throughput dose response assay to identify inhibitors of phospholipase C isozymes (PLC-gamma1).
[3] = biological target: Paired box protein Pax-8 (Homo sapiens, UniProt Q06710); test: inhibitors of PAX8-driven TPO luciferase reporter, dose response, RMG-I cells, cherry-pick (AID 687027); format: functional, cell-based;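 further: luciferase reporter driven by Pax8 target thyroperoxidase promoter measured by SteadyGlo luminescence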
[4] = cytotoxicity in OVCAR8 ovarian cancer cells, dose response, PAX8 project, cell-based, plate reader, dry powder samples (AID 743197); format: functional; conditions: OVCAR-8
[5] = IGROV1 ovarian cancer cell cytotoxicity, dose response, PAX8 inhibitor project, plate reader, dry powder samples (AID 743043); format: functional, cell-based; conditions: IGROV-1
[6] = control 3'UTR Renilla luciferase suppression, dose response, counter-screen for Shn3 inhibitor project, cell-based, Clone20-Shn3RL, cherry-picked (AID 624133); format: functional
[7] = biological target: COUP transcription factor 2 (Homo sapiens, UniProt P24468); test: Luminescence-based cell-based high throughput dose response assay to identify inhibitors of COUP-TFII (NR2F2).; format: functional;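 further: HEK293 cells transiently cotransfected with COUP-TFII expression vector and reporter; luciferase reporter luminescence driven by COUP-TFII from the pX2-168 reporter plasmid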
[8] = biological target: T1, Galanin receptor type 3 (Homo sapiens, UniProt O60755); test: Fluorescence-based cell-based primary high throughput dose response assay to identify antagonists of the Galanin Receptor 3 (GalR3).; format: functional
T1 sequence (O60755 whole entry): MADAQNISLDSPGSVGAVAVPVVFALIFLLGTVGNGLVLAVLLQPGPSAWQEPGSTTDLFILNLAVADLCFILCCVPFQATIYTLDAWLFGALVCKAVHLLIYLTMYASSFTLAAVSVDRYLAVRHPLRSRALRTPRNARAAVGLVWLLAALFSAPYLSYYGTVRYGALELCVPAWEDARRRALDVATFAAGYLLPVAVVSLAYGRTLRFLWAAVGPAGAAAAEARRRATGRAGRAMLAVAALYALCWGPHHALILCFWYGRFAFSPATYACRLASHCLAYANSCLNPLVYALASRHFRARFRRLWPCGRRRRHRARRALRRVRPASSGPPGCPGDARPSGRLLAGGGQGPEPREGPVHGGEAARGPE

[9] = cells; format: functional, cell-based; conditions: HEK-CNG
[10] = HepG2 cell cytotoxicity, dose response, cytotoxicity control for Shn3 inhibitor project, CellTiter-Glo, cherry-picked (AID 624134); format: functional, cell-based
[11] = Shn3 3'UTR reporter inhibitors, dose response, cell-based, Clone20 osteoblasts, firefly luciferase, cherry-picked (AID 624132); format: functional;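 further: firefly luciferase luminescence from reporter carrying the Shn3 3'UTR in osteoblasts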
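Wherever EC50 is given: target is galanin receptor GalR3 read with a cAMP biosensor in HEK293 cells.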

Chain of Paired box protein Pax-8 (Q06710 whole entry): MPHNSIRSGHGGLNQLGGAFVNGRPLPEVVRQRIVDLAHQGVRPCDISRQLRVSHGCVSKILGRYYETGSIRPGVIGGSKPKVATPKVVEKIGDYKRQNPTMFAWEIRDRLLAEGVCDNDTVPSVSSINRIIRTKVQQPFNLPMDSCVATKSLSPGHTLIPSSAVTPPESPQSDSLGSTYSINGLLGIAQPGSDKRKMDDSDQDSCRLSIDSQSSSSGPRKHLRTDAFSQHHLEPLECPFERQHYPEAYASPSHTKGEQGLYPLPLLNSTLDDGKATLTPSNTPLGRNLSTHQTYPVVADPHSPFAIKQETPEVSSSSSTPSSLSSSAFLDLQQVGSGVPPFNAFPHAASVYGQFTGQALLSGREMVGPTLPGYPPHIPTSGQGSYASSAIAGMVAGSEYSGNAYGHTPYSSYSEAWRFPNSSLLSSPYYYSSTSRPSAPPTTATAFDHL
Chain of COUP transcription factor 2 (P24468 whole entry): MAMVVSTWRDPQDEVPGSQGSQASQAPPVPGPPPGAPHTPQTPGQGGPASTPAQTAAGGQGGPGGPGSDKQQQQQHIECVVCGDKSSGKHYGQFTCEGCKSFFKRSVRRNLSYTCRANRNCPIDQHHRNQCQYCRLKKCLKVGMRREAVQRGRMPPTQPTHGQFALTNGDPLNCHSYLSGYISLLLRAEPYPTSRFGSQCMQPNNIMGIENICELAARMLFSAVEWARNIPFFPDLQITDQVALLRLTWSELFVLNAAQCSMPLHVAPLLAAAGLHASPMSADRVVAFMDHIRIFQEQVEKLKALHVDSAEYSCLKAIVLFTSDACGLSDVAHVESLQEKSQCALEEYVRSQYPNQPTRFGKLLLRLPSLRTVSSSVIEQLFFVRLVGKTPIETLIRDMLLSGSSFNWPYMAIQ
Chain of 1-phosphatidylinositol 4,5-bisphosphate phosphodiesterase gamma-1 (P19174 whole entry): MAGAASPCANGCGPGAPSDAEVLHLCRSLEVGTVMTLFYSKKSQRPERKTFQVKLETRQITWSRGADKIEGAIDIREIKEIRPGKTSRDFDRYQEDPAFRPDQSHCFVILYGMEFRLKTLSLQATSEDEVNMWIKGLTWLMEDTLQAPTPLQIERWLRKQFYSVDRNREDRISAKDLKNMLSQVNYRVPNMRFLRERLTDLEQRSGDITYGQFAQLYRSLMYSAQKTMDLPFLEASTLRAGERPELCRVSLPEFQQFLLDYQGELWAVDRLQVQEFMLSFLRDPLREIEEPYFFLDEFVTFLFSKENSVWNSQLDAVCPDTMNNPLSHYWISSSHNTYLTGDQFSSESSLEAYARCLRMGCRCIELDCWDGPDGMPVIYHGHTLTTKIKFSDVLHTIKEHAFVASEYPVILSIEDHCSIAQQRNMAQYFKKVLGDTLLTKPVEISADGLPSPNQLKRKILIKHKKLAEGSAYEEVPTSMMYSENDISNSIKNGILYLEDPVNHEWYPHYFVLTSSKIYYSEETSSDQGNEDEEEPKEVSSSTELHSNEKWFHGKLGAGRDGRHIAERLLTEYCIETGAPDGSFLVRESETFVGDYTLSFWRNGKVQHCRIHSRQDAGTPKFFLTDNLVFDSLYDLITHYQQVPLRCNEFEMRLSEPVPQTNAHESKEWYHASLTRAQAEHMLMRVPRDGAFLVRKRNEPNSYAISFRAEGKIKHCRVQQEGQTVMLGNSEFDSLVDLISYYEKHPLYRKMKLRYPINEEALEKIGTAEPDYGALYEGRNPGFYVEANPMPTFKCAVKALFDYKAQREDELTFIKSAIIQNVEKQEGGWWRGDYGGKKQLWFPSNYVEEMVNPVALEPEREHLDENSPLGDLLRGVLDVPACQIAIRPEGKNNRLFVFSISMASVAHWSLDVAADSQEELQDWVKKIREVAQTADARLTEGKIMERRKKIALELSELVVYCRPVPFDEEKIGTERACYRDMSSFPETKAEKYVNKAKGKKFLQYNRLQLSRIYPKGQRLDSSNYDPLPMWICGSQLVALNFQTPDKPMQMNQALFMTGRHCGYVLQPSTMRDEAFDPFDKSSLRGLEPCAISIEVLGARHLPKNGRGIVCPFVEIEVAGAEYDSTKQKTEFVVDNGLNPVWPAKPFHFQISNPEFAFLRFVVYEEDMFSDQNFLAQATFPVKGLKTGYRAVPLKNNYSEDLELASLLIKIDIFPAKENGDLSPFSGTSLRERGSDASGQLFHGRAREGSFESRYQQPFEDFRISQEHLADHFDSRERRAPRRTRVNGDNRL
Chain of 1-phosphatidylinositol 4,5-bisphosphate phosphodiesterase beta-3 (Q01970 whole entry): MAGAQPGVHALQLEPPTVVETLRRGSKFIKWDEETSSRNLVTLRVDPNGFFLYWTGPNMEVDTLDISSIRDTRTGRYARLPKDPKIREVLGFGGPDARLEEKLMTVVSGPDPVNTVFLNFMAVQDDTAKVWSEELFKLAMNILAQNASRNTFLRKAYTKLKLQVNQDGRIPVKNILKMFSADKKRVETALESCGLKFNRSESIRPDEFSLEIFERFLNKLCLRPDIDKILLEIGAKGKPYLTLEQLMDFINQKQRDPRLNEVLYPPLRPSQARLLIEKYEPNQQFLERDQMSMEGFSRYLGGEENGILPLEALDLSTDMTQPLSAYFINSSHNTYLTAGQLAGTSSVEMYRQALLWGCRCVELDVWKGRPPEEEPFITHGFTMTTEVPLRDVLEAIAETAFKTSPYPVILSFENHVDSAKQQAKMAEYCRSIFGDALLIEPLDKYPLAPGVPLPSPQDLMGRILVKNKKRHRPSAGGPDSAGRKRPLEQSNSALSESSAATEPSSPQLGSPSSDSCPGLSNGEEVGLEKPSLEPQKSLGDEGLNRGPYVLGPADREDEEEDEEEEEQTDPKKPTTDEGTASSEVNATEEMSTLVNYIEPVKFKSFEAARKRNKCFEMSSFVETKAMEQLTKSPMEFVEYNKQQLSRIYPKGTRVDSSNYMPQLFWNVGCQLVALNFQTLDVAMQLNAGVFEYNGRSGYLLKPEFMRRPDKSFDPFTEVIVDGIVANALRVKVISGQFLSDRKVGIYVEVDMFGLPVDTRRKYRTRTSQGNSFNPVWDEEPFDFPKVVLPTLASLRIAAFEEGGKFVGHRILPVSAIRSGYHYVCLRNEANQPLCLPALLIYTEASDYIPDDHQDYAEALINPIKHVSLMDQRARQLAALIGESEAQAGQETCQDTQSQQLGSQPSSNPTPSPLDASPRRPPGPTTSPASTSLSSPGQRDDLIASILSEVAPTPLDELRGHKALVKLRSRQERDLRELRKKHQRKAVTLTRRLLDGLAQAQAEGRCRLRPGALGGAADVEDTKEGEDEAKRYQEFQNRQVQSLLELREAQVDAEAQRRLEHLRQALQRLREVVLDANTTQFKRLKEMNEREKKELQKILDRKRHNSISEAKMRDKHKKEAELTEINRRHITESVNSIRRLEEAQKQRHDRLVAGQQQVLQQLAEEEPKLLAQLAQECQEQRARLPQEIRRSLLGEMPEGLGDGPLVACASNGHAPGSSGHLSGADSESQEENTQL

**Q.** For `COCCNCCCOc1ccc(Br)cc1Cl`, which IC50 [1] is on record?
**A.** Its IC50 is > 123 µM (inactive).

**Q.** And the IC50 [2]?
**A.** Its IC50 is > 123 µM (inactive).

**Q.** Which results are given for `C[C@@H]1CN([C@@H](C)CO)C(=O)c2cc(NC(=O)Cc3ccccc3)ccc2O[C@@H](C)CCCCO[C@H]1CN(C)Cc1ccc(C(F)(F)F)cc1`?
**A.** AC50 [3]: 9.1 µM (active); AC50 [4]: > 70 µM (inactive); AC50 [5]: 44.6 µM (active)

**Q.** With `Fc1ccc(N=C(S)N2CCCN(c3ccc(C(F)(F)F)cn3)CC2)c(F)c1` as the compound, how does the AC50 [6] read?
**A.** Its AC50 is 27 µM (active).

**Q.** And the IC50 [7]?
**A.** The IC50 was 3.07 µM (active).

**Q.** What about the IC50 [8] of the same compound?
**A.** The IC50 was 0.142 µM (active).

**Q.** And the EC50 [9]?
**A.** Its EC50 is > 29.9 µM (inactive).

**Q.** And the AC50 [10]?
**A.** The AC50 was 1.09 µM (active).

**Q.** And the AC50 [11]?
**A.** Its AC50 is 3.71 µM (active).

**Q.** Which AC50 [3] does the source give for `C[C@H]1CCCCO[C@H](CN(C)C(=O)NC2CCCCC2)[C@@H](C)CN([C@@H](C)CO)C(=O)c2cc(NC(=O)Nc3ccc(C(F)(F)F)cc3)ccc2O1` here?
**A.** The AC50 was 8.03 µM (active).

**Q.** What about the AC50 [4] of the same compound?
**A.** Its AC50 is 67.2 µM (active).

**Q.** What about the AC50 [5] of the same compound?
**A.** The AC50 was 47.5 µM (active).
